Test results from ChEMBL document CHEMBL1697781, “Assessment of the health effects of chemicals in humans: II. Construction of an adverse effects database for QSAR modeling” (Curr Drug Discov Technol, 2004).

Legend:
Details in all cases: human; call rule not given here
Hepatotoxicity [1] = assay: FDA HLAED, gamma-glutamyl transferase (GGT) increase
Hepatotoxicity [2] = assay: FDA HLAED, serum glutamic pyruvic transaminase (SGPT) increase
Hepatotoxicity [3] = assay: FDA HLAED, alkaline phosphatase increase
Hepatotoxicity [4] = assay: FDA HLAED, serum glutamic oxaloacetic transaminase (SGOT) increase
Hepatotoxicity [5] = assay: FDA HLAED, lactate dehydrogenase (LDH) increase
Hepatotoxicity [6] = assay: FDA HLAED, liver enzyme composite activity
Wherever GGT Increase - Index Value is given: reference of the scale not given here.
Wherever LDH Increase - Index Value is given: reference of the scale not given here.

Row | Structure (SMILES) | GGT Increase - Activity Score (Hepatotoxicity [1]) | GGT Increase - Index Value (Hepatotoxicity [1]) | GGT Increase - Number of Reports (Hepatotoxicity [1]) | SGPT Increase - Activity Score (Hepatotoxicity [2]) | SGPT Increase - Index Value (Hepatotoxicity [2]) | SGPT Increase - Number of Reports (Hepatotoxicity [2]) | Alkaline Phosphatase Increase - Activity Score (Hepatotoxicity [3]) | Alkaline Phosphatase Increase - Index Value (Hepatotoxicity [3]) | Alkaline Phosphatase Increase - Number of Reports (Hepatotoxicity [3]) | SGOT Increase - Activity Score (Hepatotoxicity [4]) | SGOT Increase - Index Value (Hepatotoxicity [4]) | SGOT Increase - Number of Reports (Hepatotoxicity [4]) | LDH Increase - Activity Score (Hepatotoxicity [5]) | LDH Increase - Index Value (Hepatotoxicity [5]) | LDH Increase - Number of Reports (Hepatotoxicity [5]) | Composite Activity - Active (Hepatotoxicity [6]) | Composite Activity - Marginal (Hepatotoxicity [6]) | Composite Activity - Score (Hepatotoxicity [6]) | also measured
1 | CNC(=C[N+](=O)[O-])NCCSCc1csc(CN(C)C)n1 [NIZATIDINE] | Inactive | 0.8 | >= 4 | Inactive | 2.4 | >= 4 | Inactive | 1.4 | >= 4 | Marginally Active | 3 | >= 4 | Inactive | 0.5 | >= 4 | 0 | 1 | Inactive | –
2 | CC(Cc1ccc(O)c(O)c1)C(C)Cc1ccc(O)c(O)c1 (stereo unspecified) [NORDIHYDROGUAIARETIC ACID] | Inactive | 0 | < 4 | Inactive | 0 | < 4 | Inactive | 0 | < 4 | Inactive | 0 | < 4 | Inactive | 0 | < 4 | 0 | 0 | Inactive | –
3 | CCn1cc(C(=O)O)c(=O)c2cc(F)c(N3CCNCC3)cc21 [NORFLOXACIN] | Inactive | 0 | < 4 | Marginally Active | 3 | >= 4 | Active | 6.3 | >= 4 | Active | 5.6 | >= 4 | Marginally Active | 3.7 | >= 4 | – | – | – | Composite Activity - Active (Hepatotoxicity [6]; Liver): 2; Composite Activity - Marginal (Hepatotoxicity [6]; Liver): 2; Composite Activity - Score (Hepatotoxicity [6]; Liver): Active
4 | CC1COc2c(N3CCN(C)CC3)c(F)cc3c(=O)c(C(=O)O)cn1c23 (stereo unspecified) [OFLOXACIN] | Inactive | 0.5 | < 4 | Inactive | 2.1 | >= 4 | Inactive | 1.2 | >= 4 | Inactive | 1.9 | >= 4 | Inactive | 1.2 | >= 4 | 0 | 0 | Inactive | –
5 | Cc1cc2c(s1)Nc1ccccc1N=C2N1CCN(C)CC1 [OLANZAPINE] | Active | 9.1 | >= 4 | Active | 15.5 | >= 4 | Marginally Active | 3.7 | >= 4 | Active | 16.5 | >= 4 | Inactive | 2.1 | >= 4 | 3 | 1 | Active | –
6 | CN(C)CC/C=C1/c2ccccc2COc2ccc(CC(=O)O)cc21 [OLOPATADINE] | Inactive | 0 | < 4 | Inactive | 0 | < 4 | Inactive | 0 | < 4 | Inactive | 0 | < 4 | Inactive | 0 | < 4 | 0 | 0 | Inactive | –
7 | O=C(O)c1cc(/N=N/c2ccc(O)c(C(=O)O)c2)ccc1O [OLSALAZINE] | Inactive | 0 | < 4 | Inactive | 1.5 | < 4 | Inactive | 0.7 | < 4 | Inactive | 2.2 | < 4 | Inactive | 0.7 | < 4 | 0 | 0 | Inactive | –
8 | COc1ccc2[nH]c([S+]([O-])Cc3ncc(C)c(OC)c3C)nc2c1 (stereo unspecified) [OMEPRAZOLE] | Inactive | 0.8 | >= 4 | Inactive | 0.9 | >= 4 | Inactive | 1.8 | >= 4 | Inactive | 1.2 | >= 4 | Inactive | 0.5 | >= 4 | 0 | 0 | Inactive | –
9 | Cc1nccn1CC1CCc2c(c3ccccc3n2C)C1=O (stereo unspecified) [ONDANSETRON] | Inactive | 0 | < 4 | Inactive | 1.3 | >= 4 | Inactive | 0.5 | >= 4 | Inactive | 1.1 | >= 4 | Inactive | 0.9 | >= 4 | 0 | 0 | Inactive | –
10 | O=C(O)CCc1nc(-c2ccccc2)c(-c2ccccc2)o1 [OXAPROZIN] | Inactive | 0.4 | < 4 | Inactive | 0.8 | >= 4 | Inactive | 0.2 | < 4 | Inactive | 0.9 | >= 4 | Inactive | 0.4 | >= 4 | 0 | 0 | Inactive | –
11 | Clc1ccc(CO/N=C(\Cn2ccnc2)c2ccc(Cl)cc2Cl)c(Cl)c1 [OXICONAZOLE] | Inactive | 0 | < 4 | Inactive | 0 | < 4 | Inactive | 0 | < 4 | Inactive | 0 | < 4 | Inactive | 0 | < 4 | – | – | – | Composite Activity - Active (Hepatotoxicity [6]; Liver): 0; Composite Activity - Marginal (Hepatotoxicity [6]; Liver): 0; Composite Activity - Score (Hepatotoxicity [6]; Liver): Inactive
12 | C[N+](C)(C)CCO.Cn1c(=O)c2[n-]cnc2n(C)c1=O [OXTRIPHYLLINE] | Inactive | 0 | < 4 | Inactive | 0 | < 4 | Inactive | 0 | < 4 | Inactive | 0 | < 4 | Inactive | 0 | < 4 | 0 | 0 | Inactive | –
